From patent US20110105349A1, “USE OF A MONOPHOSPHATE ESTER OF A PHTHALEIN COMPOUND AS A SUBSTRATE FOR TARTRATE-RESISTANT ACID PHOSPHATASE B5 (TRAP 5B)” (MUNODIAGNOSTIC SYSTEMS LIMITED, priority 2008, published 2011)
Several values for one entry are separate records, joined by “and”; a condition that tells them apart may be missing. Equal entries are not always repeated. Entries after “also recorded” stand apart in the source; their conditions may differ.

Legend:
[1] = molecular target: T1, TRAP5a (Homo sapiens, UniProt P13686); assay: Activity with phthalein monophosphate esters at 0.47 mg/mL, pH 7.4 (Example 8); type: biochemical; set-up: unit not given beside the values; settings: 0.47 mg/mL in 100 mM MES pH7.4
T1 construct: Serum-derived TRAP5a and TRAP5b were separated by ion exchange chromatography; from tissue; host or cells: human serum
T1 sequence (P13686 22-325): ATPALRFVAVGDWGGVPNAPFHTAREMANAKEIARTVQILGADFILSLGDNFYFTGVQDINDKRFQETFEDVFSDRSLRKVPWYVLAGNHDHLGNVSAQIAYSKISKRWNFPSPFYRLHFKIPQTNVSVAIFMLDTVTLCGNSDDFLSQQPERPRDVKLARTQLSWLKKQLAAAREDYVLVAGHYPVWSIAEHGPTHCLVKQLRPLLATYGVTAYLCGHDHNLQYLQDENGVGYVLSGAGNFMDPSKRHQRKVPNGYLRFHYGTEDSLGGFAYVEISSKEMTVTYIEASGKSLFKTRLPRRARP
Method: (§1) To test for activity towards PTMP, 100 μL of a solution containing 6 mg/mL PTMP dissolved in 125 mM MOPS buffer, pH 7.0 was added per well and incubated for 0-40 min at 37° C. The reactions were stopped at the times indicated by the addition of 50 μL per well of 1M glycine/NaOH, pH11 and the absorbance at […] was measured. To test for activity towards TTMP, 100 μL of a solution containing 5 mg/mL TTMP dissolved in 80 mM MOPS buffer, 10% ethanol, pH 7.0 was added per well and incubated for 0-40 min at 37° C. The reactions were stopped at the times indicated by the addition of 50 μL per well of 0.25 M NaOH and the absorbance at […] was measured.
(§2) Where phthalein monophosphate esters were not available commercially, the monophosphate esters were prepared by the method of Bulbenko & Woodbridge (U.S. Pat. No. 4,045,290) by reaction of the appropriate phthalein compound (from Sigma-Aldrich) with phosphorus oxychloride (CAS 10025-87-3), followed by hydrolysis and purification. The monophosphate esters were further purified before use by HPLC chromatography to remove un-reacted phthalein dye. HPLC column 10 mm×150 mm ACE 5 C18 (Advance Chromatography Technologies, UK), load solvent composition, 30% methanol and 70% water containing 0.1% trifluoroacetic acid (TFA); product was eluted by a gradient from 30% methanol 0.1% TFA to 100% methanol 0.1% TFA at 3 mL/minute over 45 minutes.
(§3) Phthalein monophosphate esters prepared in Example 7 were diluted to 0.47 mg/mL in 100 mM MES pH7.4 buffer and applied to an assay as in Example 1.

[2] = test system: TRAP5b; assay: as above; type: biochemical, human; set-up: 5b Activity: unit not given here; settings: 0.47 mg/mL in 100 mM MES pH7.4
Method: as §1, §2, §3

[3] = molecular target: T1, TRAP5a; assay: TRAP5 capture immunoassay, specific activity with each substrate (Example 3); type: biochemical; settings: for TRAP5 Specific Activity 5A: serum-derived TRAP5a, pNPP at pH 6.1, PTMP and TTMP at pH 7.0
Method: (§4) Microtitre plates (Nunc Maxisorp) were coated with mouse anti-TRAP5 (clone O1A), from a solution of a 3.0 mg/L purified Mab IgG in 10 mM phosphate buffered saline (PBS), 100 μL per well and incubated overnight at room temperature. The coated plates were washed three times with 10 mM phosphate buffered saline, 0.05% Tween 20. A stabilising reagent of 5% lactose, 0.5% BSA was added, 250 μL per well, incubated for at least 10 minutes, then the liquid aspirated. The coated plates were dried overnight at 35° C. then stored at 2-8° C. protected from moisture.
(§5) Serum-derived TRAP5a and TRAP5b were separated by ion exchange chromatography using a modification of the procedure described by Lam et al, Clin. Chem. 24(7):1105-1108, 1978. 100-500 mL human serum was adjusted to around pH 5.0 with 100% acetic acid, and optionally diluted with an equal volume of 10 mM sodium phosphate buffer, pH 4.9. After clarification by centrifugation and filtering, the acidified serum was applied to a 1 cm×100-150 cm column of CM-Sepharose (Sigma, part No CCF 100) and the column was developed with a linear NaCl gradient, from 150-800 mM. Fractions containing TRAP5a and TRAP5b activity were identified using a non-capture assay essentially as described by Lam et al Clin. Chem. 24(7):1105-1108, 1978. In some instances the fractions were further assayed for TRAP5 by the immunoassays described below. Fractions containing peak levels of TRAP5a or TRAP5b were separately pooled for further analysis.
(§6) The TRAP5 protein concentration in the TRAP5a and TRAP5b preparations was determined by a sandwich immunoassay. 100-200 μL sample per well was applied to O1A-coated microtitre plates and incubated overnight at 4° C. The plate was washed three times with 10 mM phosphate buffered saline, 0.05% Tween 20, and 100-200 μL of a solution containing the rabbit anti-TRAP5 antibody at a dilution of 1:4000 was added per well. […] The reactions were stopped by the addition of 100 μL 0.5M HCl and the absorbance at 450 nm was measured. TRAP5 protein concentrations were calculated by reference to a calibration curve prepared from baculovirus-derived recombinant human TRAP5.
as §1, with “To test for activity towards TTMP, 100 μL of a solution containing 5 mg/mL TTMP dissolved in 80 mM MOPS buffer, 10% ethanol, pH 7.0 was added per well and incubated for 0-40 min at 37° C.” left out
TRAP5a and TRAP5b preparations were prepared and quantified with respect to TRAP5 mass as described in Example 3. […]

[4] = test system: TRAP5b; assay: Time course of substrate hydrolysis on O1A-coated plates (Example 1, FIG. 1); type: biochemical, human; settings: for specific activity of TRAP5b relative to that of TRAP5a: pH 7.0, from FIG. 1; for hydrolysis of substrate by TRAP5b: serum-derived TRAP5b, neutral pH (7.0) in Example 1
Method: as §4, §5, §6
as §1, with “To test for activity towards TTMP, 100 μL of a solution containing 5 mg/mL TTMP dissolved in 80 mM MOPS buffer, 10% ethanol, pH 7.0 was added per well and incubated for 0-40 min at 37° C.” left out

[5] = molecular target: T1, TRAP5a; assay: pH vs activity profile (Example 2, FIG. 2); type: biochemical; settings: substrate 6 mg/mL in MES or MOPS buffers
Method: (§7) Since TRAP5 is an acid phosphatase that normally is only active under acidic conditions, the relationship between TRAP5a and TRAP5b enzyme activity and substrate pH using PTMP as substrate over a range of pH values was investigated. The TRAP5 assays were performed essentially as described for Example 1, except that the PTMP substrate was dissolved at 6 mg/mL in a series of 100 mM MES or 100 mM MOPS buffers to give the pH values indicated.

[6] = molecular target: T1, TRAP5a; assay: Time course of substrate hydrolysis on O1A-coated plates (Example 1, FIG. 1); type: biochemical; settings: serum-derived TRAP5a; neutral pH (7.0) in Example 1
Method: as §4, with “moisture. […]” for “moisture.”
The TRAP5 protein concentration in the TRAP5a and TRAP5b preparations was determined by a sandwich immunoassay. […] The reactions were stopped by the addition of 100 μL 0.5M HCl and the absorbance at 450 nm was measured. TRAP5 protein concentrations were calculated by reference to a calibration curve prepared from baculovirus-derived recombinant human TRAP5.
as §1, with “To test for activity towards TTMP, 100 μL of a solution containing 5 mg/mL TTMP dissolved in 80 mM MOPS buffer, 10% ethanol, pH 7.0 was added per well and incubated for 0-40 min at 37° C.” left out

[7] = test system: TRAP5b; assay: pH vs activity profile (Example 2, FIG. 2); type: biochemical, human; settings: substrate 6 mg/mL in MES or MOPS buffers
Method: as §7

[8] = test system: TRAP5b; assay: TRAP5 capture immunoassay, specific activity with each substrate (Example 3); type: biochemical, human; settings: for Ratio 5B:5A of specific activity / TRAP5 Specific Activity 5B: pNPP at pH 6.1, PTMP and TTMP at pH 7.0; for specificity for TRAP5b over TRAP5a compared with the commercial pNPP based assay: relative to pNPP-based assay; for TRAP5 Specific Activity 5B: serum-derived TRAP5b
Method: as §4, §5
The TRAP5 protein concentration in the TRAP5a and TRAP5b preparations was determined by a sandwich immunoassay. 100-200 μL sample per well was applied to O1A-coated microtitre plates and incubated overnight at 4° C. The plate was washed three times with 10 mM phosphate buffered saline, 0.05% Tween 20, and 100-200 μL of a solution containing the rabbit anti-TRAP5 antibody at a dilution of 1:4000 was added per well. After 60 min incubation at ambient temperature the plate was washed as above and 100-200 μL of a solution containing anti-rabbit IgG-Horseradish peroxidase conjugate at a dilution of 1:5000 was added and incubated for 30 min at ambient temperature. After further washing as described above […] of TMB (BioFx Inc, part TMBW-0100-01) was added and incubated for 30 min at ambient temperature. The reactions were stopped by the addition of 100 μL 0.5M HCl and the absorbance at 450 nm was measured. TRAP5 protein concentrations were calculated by reference to a calibration curve prepared from baculovirus-derived recombinant human TRAP5.
as §1
TRAP5a and TRAP5b preparations were prepared and quantified with respect to TRAP5 mass as described in Example 3. A set of TRAP5 calibrators was prepared by incubating 225 μg baculovirus-derived recombinant human TRAP with 12 U chymotrypsin for 6 h at ambient temperature, preparing a series of dilutions from this material and assigning TRAP5 concentrations (in U/L) to these dilutions using the commercial TRAP5b immunoassay based on WO1999/050662. The TRAP5a and TRAP5b preparations were assayed by a commercial TRAP5b immunoassay based on WO1999/050662 which uses pNPP as substrate at pH 6.1 with the modification that the chymotrypsin-treated calibrators described above were substituted for those provided by the manufacturer. […]

[9] = molecular target: T1, TRAP5a; assay: Assay of CM-Sepharose fractions of normal human serum with pNPP- and PTMP-based assays (Example 4, FIG. 3); type: biochemical
From the text: TRAP5a and TRAP5b from normal human serum were separated on a CM-Sepharose column and the fractions assessed for TRAP5b using the pNPP and PTMP-based assays described in Example 3.

[10] = test system: TRAP5b; settings: cited from earlier work; for pH optimum of TRAP5b: WO1999/050662 (pNPP), EP1598670 (2-chloro-4-nitrophenylphosphate)

| SMILES | 5a Activity [1] | 5b Activity [2] | Ratio of 5b:5a activity [2] | TRAP5 Specific Activity 5A [3] [U/μg] | Ratio 5B:5A of specific activity [8] | TRAP5 Specific Activity 5B [8] [U/μg] | other results |
| --- | --- | --- | --- | --- | --- | --- | --- |
| Cc1c(C2(c3cc(Br)c(OP(=O)(O)O)c(Br)c3C)OS(=O)(=O)c3ccccc32)cc(Br)c(O)c1Br (stereo not shown) [Bromocresol Green, Bromocresol Green monophosphate] | 0.0036 | 0.2636 | 73.2 |  |  |  |  |
| Cc1cc(C2(c3cc(C)c(OP(=O)(O)O)c(Br)c3)OS(=O)(=O)c3ccccc32)cc(Br)c1O (stereo not shown) [Bromocresol Purple, Bromocresol Purple monophosphate] | 0.0074 | 0.4755 | 64.3 |  |  |  |  |
| O=C1OC(c2ccc(O)cc2)(c2ccc(OP(=O)(O)O)cc2)c2ccccc21 (stereo not shown) [PTMP, Phenolphthalein monophosphate] | 0.0110 | 0.3664 | 33.3 | 0.035 | 47.5 | 1.68 | TRAP5a detected, as share of the TRAP5a detected by the pNPP-based assay ([3]; from specific activities, PTMP pH 7.0 vs pNPP pH 6.1): 20%; specific activity of TRAP5b relative to that of TRAP5a [4]: approximately 50 times; hydrolysis of substrate by TRAP5b [4]: readily hydrolyze; also recorded: hydrolised; pH of maximal activity (pH optimum) of TRAP5a [5]: ~6.0 pH; hydrolysis of substrate by TRAP5a [6]: readily hydrolyze; also recorded: hydrolised; pH of maximal activity (pH optimum) of TRAP5b [7]: 7.0 pH; specificity for TRAP5b over TRAP5a compared with the commercial pNPP based assay [8]: ~4.75 fold; TRAP5a detected, as share of the TRAP5a detected by the pNPP-based assay ([9]; peak TRAP5a fraction 53): 16% |
| O=[N+]([O-])c1ccc(OP(=O)(O)O)c(Cl)c1 [2-chloro-4-nitrophenylphosphate] |  |  |  |  |  |  | relative activity for TRAP 5b over TRAP 5a compared with WO1999/050662 ([10]; EP 1598670): 0.8 ×; pH optimum of TRAP5b [10]: 6.4 pH |
| O=P(O)(O)Oc1ccc(C2(c3ccc(O)c(Cl)c3)OS(=O)(=O)c3ccccc32)cc1Cl (stereo not shown) [Chlorophenol Red, Chlorophenol Red monophosphate] | 0.0067 | 0.3558 | 53.1 |  |  |  |  |
| O=P(O)(O)Oc1ccc(C2(c3ccc(O)cc3)OS(=O)(=O)c3ccccc32)cc1 (stereo not shown) [Phenol Red, Phenol Red monophosphate] | 0.0067 | 0.3558 | 53.1 |  |  |  |  |
| Cc1cc(O)c(C(C)C)cc1C1(c2cc(C(C)C)c(OP(=O)(O)O)cc2C)OC(=O)c2ccccc21 (stereo not shown) [TTMP, Thymolphthalein monophosphate] |  |  |  | 0.035 | 65.3 | 2.3 | specific activity of TRAP5b relative to that of TRAP5a [4]: approximately 70 times; hydrolysis of substrate by TRAP5b [4]: readily hydrolyze; also recorded: hydrolised; hydrolysis of substrate by TRAP5a [6]: readily hydrolyze; also recorded: hydrolised; specificity for TRAP5b over TRAP5a compared with the commercial pNPP based assay [8]: ~6.5 fold |
| O=[N+]([O-])c1ccc(OP(=O)(O)O)cc1 [pNPP, p-nitrophenyl phosphate, reference compound] |  |  |  | 0.177 | 9 and 9.04 | 1.60 | share of the material measured as TRAP5b that is actually TRAP5a ([9]; normal human serum, CM-Sepharose fractions): around 40%; pH optimum of TRAP5b [10]: ~5.9 pH |
